From article PMC7505981, “Preparation of a whole cell catalyst overexpressing acetohydroxyacid synthase of Thermotoga maritima and its application in the syntheses of α-hydroxyketones” (Scientific Reports, 2020)

Target: T1, TmcAHAS (large catalytic subunit of acetohydroxyacid synthase of Thermotoga maritima) (Thermotoga maritima, UniProt Q9WZ18)
T1 construct: gene TM_0548; catalytic subunit alone, without regulatory subunit; gene from genomic DNA in pET28a (NdeI/BamHI), N-terminal His6 tag, E. coli Rosetta(DE3), Ni-NTA purified, about 68 kDa on SDS-PAGE; forward primer after NdeI site encodes MLLDEI
Assay: photometric creatine/alpha-naphthol assay of acetoin at […] nm, Michaelis-Menten fit
Assay type: biochemical
Details: 50 mM phosphate pH 8.0, 80 °C, 10 min, 10 μM FAD, 1 mM ThDP, 10 mM Mg2+; catalytic subunit alone; read-out: Km for pyruvate

T1 sequence (Q9WZ18 entry or part of it): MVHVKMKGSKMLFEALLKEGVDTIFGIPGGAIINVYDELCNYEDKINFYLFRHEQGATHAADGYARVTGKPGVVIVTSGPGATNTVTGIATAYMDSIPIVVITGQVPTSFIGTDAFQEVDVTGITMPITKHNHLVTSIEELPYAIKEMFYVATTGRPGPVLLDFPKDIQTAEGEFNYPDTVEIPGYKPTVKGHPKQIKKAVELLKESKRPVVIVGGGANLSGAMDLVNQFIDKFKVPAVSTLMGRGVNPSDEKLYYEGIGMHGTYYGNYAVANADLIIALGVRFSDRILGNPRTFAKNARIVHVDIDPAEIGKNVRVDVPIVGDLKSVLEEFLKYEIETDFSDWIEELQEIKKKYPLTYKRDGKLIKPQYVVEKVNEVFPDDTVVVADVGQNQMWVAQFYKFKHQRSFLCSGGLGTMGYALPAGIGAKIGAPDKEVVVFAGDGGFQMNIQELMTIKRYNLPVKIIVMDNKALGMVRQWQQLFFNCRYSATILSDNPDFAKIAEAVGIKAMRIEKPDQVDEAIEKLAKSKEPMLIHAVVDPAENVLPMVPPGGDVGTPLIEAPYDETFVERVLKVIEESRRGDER

Km: 19.1 ± 1.6 mM
SMILES: CC(=O)C(=O)O [pyruvate]
